Data set [1] has as its target HDAC6 human recombinant enzyme (Homo sapiens (Human), UniProt Q9UBN7). In words: Histone Deacetylase Assay (BPS Biosciences), HDAC6. It counts as biochemical. The text has this: Histone Deacetylase Assay (BPS Biosciences)
Histone deacetylase assay was done as per manufacturer's instructions.

For data set [2], the system named is MM1S. Briefly: Anticancer activity: Alamar Blue assay, MM1S. The format is cell-based. The settings on record: Homo sapiens, MM1.S, read-out: MM1S EC50. On the technique in general: The colour change of resazurin is a common sign of viable cells or microbes.
Data set [3] concerns the target LSD1 (Homo sapiens (Human), UniProt O60341). Briefly: TR-FRET Assay for LSD1.
Protocol: TR-FRET Assay for LSD1 (Perkin Elmer)
Tranylcypromine (TCP), LSD1 inhibitor was procured from Selleckchem. […] Stop Solution containing 300 μM tranylcypromine in 1× LANCE Detection Buffer was added to the wells and incubated for 5 min at RT. Then, Detection mix containing 2 nM Eu-Ab and 50 nM ULight-Streptavidin in 1× LANCE Detection Buffer was prepared and added to the reaction mix. This mixture was incubated for 1 hour at room temperature.
A short description of data set [4]: Metabolic stability in liver microsomes, HLM. The conditions noted are these: 1 μM, NADPH.
Protocol: (§1) The microsomal suspension was prepared by adding liver microsomes to 100 mM potassium phosphate buffer (pH7.4) to give a final protein concentration of 0.5 mg/mL. The stock solution of NCE (10 mM in DMSO) was added to the microsomes to provide a final concentration of 1 μM. […] Samples were vortexed and centrifuged at 5,000 rpm for 10 min to remove proteins. Supernatant were analyzed on LC-MS/MS.
Data set [5] can be described thus: Metabolic stability in liver microsomes, MLM. The conditions noted are these: 1 μM, NADPH. For orientation: Liver microsomes are a subcellular fraction often used to study metabolism.
Protocol: as §1

Structures can show the parent of a compound that is named as a salt. Where two headings read alike, the source gives them in different places.

For orientation: IC50 means the midpoint of a concentration-inhibition curve. The EC50 is the concentration giving half of the maximal effect.

HDAC6 human recombinant enzyme, sequence (Q9UBN7 whole entry): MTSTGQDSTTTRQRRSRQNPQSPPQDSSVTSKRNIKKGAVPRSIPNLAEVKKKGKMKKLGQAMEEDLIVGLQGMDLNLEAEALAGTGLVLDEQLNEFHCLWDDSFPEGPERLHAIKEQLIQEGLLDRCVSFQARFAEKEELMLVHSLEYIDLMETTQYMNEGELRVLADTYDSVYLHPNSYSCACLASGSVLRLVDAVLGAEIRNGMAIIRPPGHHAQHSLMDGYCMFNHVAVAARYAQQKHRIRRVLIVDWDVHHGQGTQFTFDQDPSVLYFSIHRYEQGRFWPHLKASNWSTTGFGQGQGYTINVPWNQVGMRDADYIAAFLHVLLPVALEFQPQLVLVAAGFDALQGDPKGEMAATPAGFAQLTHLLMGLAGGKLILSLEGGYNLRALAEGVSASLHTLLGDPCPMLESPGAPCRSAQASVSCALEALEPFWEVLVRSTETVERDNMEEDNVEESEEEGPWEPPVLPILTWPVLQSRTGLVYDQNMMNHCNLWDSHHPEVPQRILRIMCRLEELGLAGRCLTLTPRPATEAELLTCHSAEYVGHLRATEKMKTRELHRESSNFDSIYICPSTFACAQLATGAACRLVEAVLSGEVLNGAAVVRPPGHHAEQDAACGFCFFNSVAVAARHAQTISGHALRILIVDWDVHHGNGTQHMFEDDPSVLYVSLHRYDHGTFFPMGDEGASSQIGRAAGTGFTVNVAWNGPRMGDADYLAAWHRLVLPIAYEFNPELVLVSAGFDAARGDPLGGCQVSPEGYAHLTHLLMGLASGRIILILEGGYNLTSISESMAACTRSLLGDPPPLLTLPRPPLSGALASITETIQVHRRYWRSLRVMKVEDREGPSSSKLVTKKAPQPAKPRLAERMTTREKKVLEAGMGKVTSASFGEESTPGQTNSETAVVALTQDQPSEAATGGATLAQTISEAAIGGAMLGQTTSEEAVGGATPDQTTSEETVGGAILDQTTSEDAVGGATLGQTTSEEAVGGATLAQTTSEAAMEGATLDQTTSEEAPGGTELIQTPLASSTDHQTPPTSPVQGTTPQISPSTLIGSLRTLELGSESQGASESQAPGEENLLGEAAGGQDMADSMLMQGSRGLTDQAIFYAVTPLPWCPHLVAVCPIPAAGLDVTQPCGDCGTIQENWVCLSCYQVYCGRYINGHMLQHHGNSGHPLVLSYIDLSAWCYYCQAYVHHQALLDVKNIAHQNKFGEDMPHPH

Turning to `O=C(NO)c1cc2c(s1)CCN(C(=O)CCCN1CCC(CNC3CC3c3ccc(F)cc3)CC1)C2` (centres unmarked) [Example 106, 5-(4-(4-(((2-(4-fluorophenyl)cyclopropyl)amino)methyl)piperidin-1-yl)butanoyl)-N-hydroxy-4,5,6,7-tetrahydrothieno[3,2-c]pyridine-2-carboxamide TFA Salt], the IC50 in data set [1] worked out at 35 nM; in data set [3] (read-out: LSD1 IC50) it was 26 nM. In addition, the EC50 in data set [2] came to 14 nM. The “Metabolic stability HLM % remaining in 30 min” value in data set [4] came to 74%. In data set [5], the “Metabolic stability MLM % remaining in 30 min” value stood at 92%.
On to `CN1C(=O)C(C)(C)c2cc(C3CC3NCC3CCN(CCCc4ccc(C(=O)NO)cc4)CC3)ccc21` (centres unmarked) [Example 81, N-hydroxy-4-(3-(4(((2-(1,3,3,-trimethyl-2-oxoindoline-5-yl)cyclopropyl)amino)methyl)piperidine-1-yl)propyl)benzamide TFA Salt], for which the IC50 in data set [1] was 125 nM; in data set [3] (read-out: LSD1 IC50), 394 nM. For the same compound, in data set [2] (MM1S cells), the EC50 worked out at 22 nM. For the same compound, the “Metabolic stability HLM % remaining in 30 min” value in data set [4] was >95/>95%. In addition, the “Metabolic stability MLM % remaining in 30 min” value in data set [5] is recorded as >95/>95%.
As to `O=C(NO)c1ccc(CCCN2CC(CNC3CC3c3ccc(-c4ccc(F)cc4)cc3)C2)cc1` (centres unmarked) [Example 58, 4-(3-(3-(((2-(4′-fluoro-[1,1′-biphenyl]-4-yl)cyclopropyl)amino)methyl)azetidin-1-yl)propyl)-N-hydroxybenzamide TFA Salt], the IC50 in data set [1] came to 43 nM; in data set [3] (read-out: LSD1 IC50), 25 nM. For the same compound, in data set [2], the half-maximal effective concentration (EC50) was 15 nM. In data set [4], the “Metabolic stability HLM % remaining in 30 min” value came to 85%. For the same compound, the “Metabolic stability MLM % remaining in 30 min” value in data set [5] stood at 91%.
With `O=C(NO)c1ccc(OCCNC2CC2c2ccccc2)cc1` (centres unmarked) [Example 95, N-hydroxy-4-(2-((2-phenylcyclopropyl)amino)ethoxy)benzamide TFA Salt], the figures for the IC50 in data set [1] and in data set [3] (read-out: LSD1 IC50) were 350 nM and 33 nM, respectively. In data set [2], the 50% effective concentration (EC50) amounted to 144 nM. In addition, the “Metabolic stability HLM % remaining in 30 min” value in data set [4] was 75%. The “Metabolic stability MLM % remaining in 30 min” value in data set [5] is listed as 55%.
Turning to `O=C(NO)c1ccc(CCC(=O)N2CCC(CNC3CC3c3ccccc3)CC2)cc1` (centres unmarked) [Example 82, N-hydroxy-4-(3-oxo-3-(4-(((2-phenylcyclopropyl)amino)methyl)piperidin-1-yl)propyl)benzamide TFA Salt], the half-maximal inhibitory concentration (IC50) in data set [1] is 35 nM; in data set [3] (read-out: LSD1 IC50), 94 nM. In addition, the concentration for a half-maximal effect (EC50) in data set [2] turned out to be 619 nM. Moreover, the “Metabolic stability HLM % remaining in 30 min” value in data set [4] is recorded as 77%. The “Metabolic stability MLM % remaining in 30 min” value in data set [5] was found to be 72%.
For `Nc1ccccc1NC(=O)c1ccc(/C=C/C(=O)N2CC(CNC3CC3c3ccc(F)cc3)C2)cc1` (centres unmarked) [Example 157, (E)-N-(2-aminophenyl)-4-(3-(3-(((2-(4-fluorophenyl)cyclopropyl)amino)methyl)azetidin-1-yl)-3-oxoprop-1-en-1-yl)benzamide TFA Salt] the same measures were above 10000 nM, 58 nM, 167 nM, 53% and 63%.
For `O=C(NO)c1cnc(NCCN2CCC(CNC3CC3c3ccc(F)cc3)CC2)nc1` (centres unmarked) [Example 102, 2-((2-(4-(((2-(4-fluorophenyl)cyclopropyl)amino)methyl)piperidin-1-yl)ethyl)amino)-N-hydroxypyrimidine-5-carboxamide TFA Salt] the same measures were 75 nM, 22 nM, 5 nM, >99/>99% and >99/>99%.
In the case of `O=C(NO)c1ccc(OCCN2CCC(CNC3CC3c3ccccc3)CC2)cc1` (centres unmarked) [Example 99, N-hydroxy-4-(2-(4-(((2-phenylcyclopropyl)amino)methyl)piperidin-1-yl)ethoxy)benzamide TFA Salt], the figures for the IC50 in data set [1] and in data set [3] (read-out: LSD1 IC50) were 51 nM and 4 nM, respectively. The 50% effective concentration (EC50) in data set [2] amounted to 27 nM. Moreover, the “Metabolic stability HLM % remaining in 30 min” value in data set [4] is on record as 63%. The “Metabolic stability MLM % remaining in 30 min” value in data set [5] turned out to be 76%.
As for `Nc1ccccc1NC(=O)c1cnc(NCCN2CCC(CNC3CC3c3ccc(F)cc3)CC2)nc1` (centres unmarked) [Example 150], the results for the IC50 in data set [1] and in data set [3] (read-out: LSD1 IC50) were above 10000 nM and 16 nM, respectively. Moreover, the EC50 in data set [2] (MM1S cells) stood at 411 nM. The “Metabolic stability HLM % remaining in 30 min” value in data set [4] is >95/>95%. Moreover, the “Metabolic stability MLM % remaining in 30 min” value in data set [5] is listed as >95/>95%.
`Nc1ccccc1NC(=O)c1ccc(CCCn2cnc(CNC3CC3c3ccccc3)c2)cc1` (centres unmarked) [Example 136, N-(2-aminophenyl)-4-(3-(4-(((2-phenylcyclopropyl)amino)methyl)-1H-imidazol-1-yl)propyl)benzamide TFA Salt]: the IC50 in data set [1] was above 10000 nM; in data set [3] (read-out: LSD1 IC50) it was 570 nM. The half-maximal effective concentration (EC50) in data set [2] stood at 174 nM. In data set [4], the “Metabolic stability HLM % remaining in 30 min” value was found to be 4%. In addition, the “Metabolic stability MLM % remaining in 30 min” value in data set [5] is given as 3%.
On to `O=C(NO)c1csc(CCCN2CCC(CNC3CC3c3ccccc3)CC2)n1.O=C(O)C(F)(F)F` (centres unmarked) [Example 110, N-hydroxy-2-(3-(4-(((2-phenylcyclopropyl)amino)methyl)piperidin-1-yl)propyl)thiazole-4-carboxamide TFA Salt], for which the IC50 is above 10000 nM in data set [1] and 26 nM in data set [3]. Further, the half-maximal effective concentration (EC50) in data set [2] (MM1S cells) is above 10000 nM. In addition, in data set [4], the “Metabolic stability HLM % remaining in 30 min” value is listed as 88%. For the same compound, the “Metabolic stability MLM % remaining in 30 min” value in data set [5] is on record as 95%.
With `O=C(NO)c1ccc(CN2CCn3cc(CNC4CC4c4ccc(F)cc4)nc3C2)cc1` (centres unmarked) [Example 80, 4-((2-(((2-(4-fluorophenyl)cyclopropyl)amino)methyl)-5,6-dihydroimidazo[1,2-a]pyrazin-7(8H)-yl)methyl)-N-hydroxybenzamide TFA Salt], the IC50 in data set [1] turned out to be 68 nM; in data set [3] (read-out: LSD1 IC50) it was 1500 nM. In addition, in data set [2], the half-maximal effective concentration (EC50) was found to be 331 nM. The “Metabolic stability HLM % remaining in 30 min” value in data set [4] is given as 82%. Also, the “Metabolic stability MLM % remaining in 30 min” value in data set [5] turned out to be 87%.
For `Cn1cc(-c2ccc(C3CC3NCC3CN(C(=O)/C=C/c4ccc(C(=O)NO)cc4)C3)cc2)cn1` (centres unmarked) [Example 119, (E)-N-hydroxy-4-(3-(3-(((2-(4-(1-methyl-1H-pyrazol-4-yl)phenyl)cyclopropyl)amino)methyl)azetidin-1-yl)-3-oxoprop-1-en-1-yl)benzamide TFA Salt], in that order: 49 nM, 19 nM, 772 nM, 72% and 49%.
On to `Nc1ccccc1NC(=O)c1ccc(/C=C/C(=O)N2CCC(CNC3CC3c3ccc(F)cc3)CC2)cc1` (centres unmarked) [Example 156], for which the 50% inhibitory concentration (IC50) in data set [1] is above 10000 nM; in data set [3] (read-out: LSD1 IC50), 186 nM. The concentration giving a half-maximal response (EC50) in data set [2] (MM1S cells) came out at 97 nM. The “Metabolic stability HLM % remaining in 30 min” value in data set [4] stood at 58%. The “Metabolic stability MLM % remaining in 30 min” value in data set [5] was determined as 49%.
Turning to `CC(NC1CC1c1ccccc1)[C@H]1CC[C@H](C(=O)NO)CC1` (stereo partly drawn) [Example 34, (1S,4R)—N-hydroxy-4-((1S)-1-((2-phenylcyclopropyl)amino)ethyl)cyclohexanecarboxamide TFA Salt], the 50% inhibitory concentration (IC50) is above 1000 nM in data set [1] and 31 nM in data set [3] (read-out: LSD1 IC50). The EC50 in data set [2] (MM1S cells) was found to be 94 nM. The “Metabolic stability HLM % remaining in 30 min” value in data set [4] worked out at 90%. Further, the “Metabolic stability MLM % remaining in 30 min” value in data set [5] was 79%.
For `O=C(NO)c1ccc(CN2CCc3ccc(CNC4CC4c4ccc(F)cc4)cc3C2)cc1` (centres unmarked) [Example 79, 4-((7-(((2-(4-fluorophenyl)cyclopropyl)amino)methyl)-3,4-dihydroisoquinolin-2(1H)-yl)methyl)-N-hydroxybenzamide TFA Salt], the IC50 in data set [1] amounted to 24 nM; in data set [3] (read-out: LSD1 IC50), 79 nM. Also, the EC50 in data set [2] stood at 39 nM. Moreover, the “Metabolic stability HLM % remaining in 30 min” value in data set [4] was found to be 18%. In addition, the “Metabolic stability MLM % remaining in 30 min” value in data set [5] is given as 6%.
For `Nc1ccccc1NC(=O)c1ccc(CCC(=O)N2CCC(CNC3CC3c3ccccc3)CC2)cc1` (centres unmarked) [Example 134, N-(2-aminophenyl)-4-(3-oxo-3-(4-(((2-phenylcyclopropyl)amino)methyl)piperidin-1-yl)propyl)benzamide TFA Salt], in that order: above 10000 nM, 42 nM, 174 nM, 10/10% and 10/10%.
In the case of `Cn1cc(-c2ccc(C3CC3NCC3CCN(CCCc4ccc(C(=O)NO)cc4)CC3)cc2)cn1` (centres unmarked) [Example 62, N-hydroxy-4-(3-(4-(((2-(4-(1-methyl-1H-pyrazol-4-yl)phenyl)cyclopropyl)amino)methyl)piperidin-1-yl)propyl) benzamide TFA Salt], the 50% inhibitory concentration (IC50) was found to be 66 nM in data set [1] and 43 nM in data set [3] (read-out: LSD1 IC50). Moreover, the EC50 in data set [2] (MM1S cells) amounted to 7 nM. In addition, the “Metabolic stability HLM % remaining in 30 min” value in data set [4] turned out to be 77%. Moreover, the “Metabolic stability MLM % remaining in 30 min” value in data set [5] amounted to 66%.
Turning to `O=C(NO)c1ccc(/C=C/C(=O)N2CCC(CNC3CC3c3ccc(-c4cncnc4)cc3)CC2)cc1` (centres unmarked) [Example 117, (E)-N-hydroxy-4-(3-oxo-3-(4-(((2-(4-(pyrimidin-5-yl)phenyl)cyclopropyl)amino)methyl)piperidin-1-yl)prop-1-en-1-yl)benzamide TFA Salt], the IC50 in data set [1] came out at 74 nM; in data set [3] (read-out: LSD1 IC50), 46 nM. Also, the EC50 in data set [2] stood at 460 nM. Also, the “Metabolic stability HLM % remaining in 30 min” value in data set [4] is listed as 80%. Also, the “Metabolic stability MLM % remaining in 30 min” value in data set [5] is 82%.

(Values after patent publication US11352322B2, “Cyclopropyl-amide compounds as dual LSD1/HDAC inhibitors” (Jubilant Epicore LLC, priority 2016, dated 2022).)
